Counter-ions that a name gives are not always drawn.
Compound | melting point
Cn1cnc2cc(NC3=NCCN3)ccc21 (as salt: fumarate) [Example 9, 1-Methyl-5-(2-imidazolin-2-ylamino)Benzimidazole] | 210 to 211 °C
Cn1cnc2ccc(NC3=NCCN3)cc21 (as salt: fumarate) [Example 11, 3-Methyl-5-(2-imidazolin-2-ylamino)Benzimidazole] | 202 to 204 °C
CCCn1cnc2cc(NC3=NCCN3)ccc21 (as salt: fumarate) [Example 13, 1-Propyl-5-(2-imidazolin-2-ylamino)Benzimidazole] | 206 to 207 °C
CCCn1cnc2ccc(NC3=NCCN3)cc21 (as salt: fumarate) [Example 15, 3-Propyl-5-(2-imidazolin-2-ylamino)Benzimidazole] | 198 to 199 °C
CC(C)n1cnc2cc(NC3=NCCN3)ccc21 (as salt: fumarate) [Example 17, 1-Isopropyl-5-(2-imidazolin-2-ylamino)Benzimidazole] | 185 to 186 °C
CC(C)n1cnc2c(Br)c(NC3=NCCN3)ccc21 (as salt: fumarate) [Example 18, 1-Isopropyl-4-bromo-5-(2-imidazolin-2-ylamino)Benzimidazole] | 187 to 188 °C
CC(C)n1cnc2c(I)c(NC3=NCCN3)ccc21 (as salt: fumarate) [Example 19, 1-lsopropyl-4-Iodo-5-(2-imidazolin-2-ylamino)Benzimidazole] | 208 to 209 °C
CC(C)n1cnc2ccc(NC3=NCCN3)c(Br)c21 (as salt: fumarate) [Example 21, 3-Isopropyl-4-bromo-5-(2-imidazolin-2-ylamino)Benzimidazole] | 210 to 212 °C
CC(C)Cn1cnc2cc(NC3=NCCN3)ccc21 (as salt: fumarate) [Example 22, 1-Isobutyl-5-(2-imidazolin-2-ylamino)Benzimidazole] | 185 to 186 °C
CC(C)Cn1cnc2ccc(NC3=NCCN3)c(Br)c21 (as salt: fumarate) [Example 24, 3-Isobutyl-4-bromo-5-(2-imidazolin-2-ylamino)Benzimidazole] | 187 to 188 °C
c1cc2c(cc1NC1=NCCN1)ncn2C1CCCC1 (as salt: fumarate) [Example 25, 1-Cyclopentyl-5-(2-imidazolin-2-ylamino)Benzimidazole] | 214 to 215 °C
Brc1c(NC2=NCCN2)ccc2c1ncn2C1CCCC1 (as salt: fumarate) [Example 26, 1-Cyclopentyl-4-bromo-5-(2-imidazolin-2-ylamino)Benzimidazole] | 180 to 182 °C
c1cc2ncn(C3CCCC3)c2cc1NC1=NCCN1 (as salt: fumarate) [Example 27, 3-Cyclopentyl-5-(2-imidazolin-2-ylamino)Benzimidazole] | 158 to 159 °C
Brc1c(NC2=NCCN2)ccc2ncn(C3CCCC3)c12 (as salt: fumarate) [Example 28, 3-Cyclopentyl-4-bromo-5-(2-imidazolin-2-ylamino)Benzimidazole] | 208 to 210 °C
c1cc2c(cc1NC1=NCCN1)ncn2CC1CCCCC1 (as salt: fumarate) [Example 29, 1-Cyclohexylmethyl-5-(2-imidazolin-2-ylamino)Benzimidazole] | 222 to 223 °C
Brc1c(NC2=NCCN2)ccc2c1ncn2CC1CCCCC1 (as salt: fumarate) [Example 30, 1-Cyclohexylmethyl-4-bromo-5-(2-imidazolin-2-ylamino)Benzimidazole] | 193 to 195 °C
Brc1c(NC2=NCCN2)ccc2ncn(CC3CCCCC3)c12 (as salt: fumarate) [Example 31, 3-Cyclohexylmethyl-4-bromo-5-(2-imidazolin-2-ylamino)Benzimidazole] | 153 to 155 °C
c1ccc(Cn2cnc3cc(NC4=NCCN4)ccc32)cc1 (as salt: fumarate) [Example 32, 1-Benzyl-5-(2-imidazolin-2-ylamino)Benzimidazole] | 174 to 175 °C

Compound | melting point
Brc1c(NC2=NCCN2)ccc2c1ncn2Cc1ccccc1 (as salt: fumarate) [Example 33, 1-Benzyl-4-bromo-5-(2-imidazolin-2-ylamino)Benzimidazole] | 197 to 198 °C
c1ccc(Cn2cnc3ccc(NC4=NCCN4)cc32)cc1 (as salt: fumarate) [Example 34, 3-Benzyl-5-(2-imidazolin-2-ylamino)Benzimidazole] | 174 to 175 °C
Brc1c(NC2=NCCN2)ccc2ncn(Cc3ccccc3)c12 (as salt: fumarate) [Example 35, 3-Benzyl-4-bromo-5-(2-imidazolin-2-ylamino)Benzimidazole] | 203 to 205 °C
COc1cccc(Cn2cnc3c(Br)c(NC4=NCCN4)ccc32)c1 (as salt: fumarate) [Example 37, 1-(3-Methoxybenzyl)-4-bromo-5-(2-imidazolin-2-ylamino)Benzimidazole] | 177 to 178 °C
OCCn1cnc2c(Br)c(NC3=NCCN3)ccc21 (as salt: fumarate) [Example 38, 1-(2-Hydroxyethyl)-4-bromo-5-(2-imidazolin-2-ylamino)Benzimidazole] | 141 to 143 °C
Cc1nc2ccc(NC3=NCCN3)c(Br)c2[nH]1 (as salt: fumarate) [Example 42, 2-Methyl-4-bromo-5-(2-imidazolin-2-ylamino)Benzimidazole] | 222 to 224 °C
CCc1nc2ccc(NC3=NCCN3)c(Br)c2[nH]1 (as salt: fumarate) [Example 43, 2-Ethyl-4-bromo-5-(2-imidazolin-2-ylamino)Benzimidazole] | 186 to 187 °C
CC(C)c1nc2ccc(NC3=NCCN3)c(Br)c2[nH]1 (as salt: fumarate) [Example 44, 2-Isopropyl-4-bromo-5-(2-imidazolin-2-ylamino)Benzimidazole] | 176 to 178 °C
CC(C)(C)c1nc2ccc(NC3=NCCN3)c(Br)c2[nH]1 (as salt: fumarate) [Example 45, 2-tert-Butyl-4-bromo-5-(2-imidazolin-2-ylamino)Benzimidazole] | 176 to 178 °C
Brc1c(NC2=NCCN2)ccc2nc(C(c3ccccc3)c3ccccc3)[nH]c12 (as salt: fumarate) [Example 48, 2-Diphenylmethyl-4-bromo-5-(2-imidazolin-2-ylamino)Benzimidazole] | 240 to 242 °C
Cc1cc2nc[nH]c2cc1NC1=NCCN1 (as salt: fumarate) [Example 49, 6-Methyl-5-(2-imidazolin-2-ylamino)Benzimidazole] | 219 to 221 °C
Brc1cc(NC2=NCCN2)cc2[nH]cnc12 (as salt: fumarate) [Example 51, 7-Bromo-5-(2-imidazolin-2-ylamino)Benzimidazole] | 217 to 218 °C
Cc1cc(NC2=NCCN2)cc2[nH]cnc12 (as salt: fumarate) [Example 52, 7-Methyl-5-(2-imidazolin-2-ylamino)Benzimidazole] | 229 to 231 °C
Clc1cc(NC2=NCCN2)cc2[nH]cnc12 (as salt: fumarate) [Example 53, 7-Chloro-5-(2-imidazolin-2-ylamino)Benzimidazole] | 220 to 221 °C
CCc1cc(NC2=NCCN2)cc2[nH]cnc12 (as salt: fumarate) [Example 55, 7-Ethyl-5-(2-imidazolin-2-ylamino)Benzimidazole] | 203 to 205 °C
CCCCc1cc(NC2=NCCN2)cc2[nH]cnc12 (as salt: fumarate) [Example 56, 7-Butyl-5-(2-imidazolin-2-ylamino)Benzimidazole] | 115 to 117 °C
c1ccc(-c2cc(NC3=NCCN3)cc3[nH]cnc23)cc1 (as salt: fumarate) [Example 57, 7-Phenyl-5-(2-imidazolin-2-ylamino)Benzimidazole] | 149 to 151 °C
Clc1cc(NC2=NCCN2)c(Br)c2[nH]cnc12 (as salt: fumarate) [Example 60, 4-Bromo-7-chloro-5-(2-imidazolin-2-ylamino)Benzimidazole] | 244 to 246 °C
